# Measured values: patent US20120214846A1, “HEXAHYDROCYCLOPENTYL[F]INDAZOLE PYRIDYL ETHANOLS AND DERIVATIVES THEREOF AS SELECTIVE GLUCOCORTICOID RECEPTOR MODULATORS” (MERCK SHARP & DOHME CORP, priority 2009, published 2012)
# What was measured:
# [1] = Solubility at pH 2; format: physicochemical; conditions: Table 4, literature compounds
# [2] = system: female Sprague-Dawley rats, oxazolone (OX) contact dermatitis; assay: In Vivo Inflammation Assay (oxazolone contact dermatitis model); design: key to Inflammation Assay Glucose Effect / GL *: +: the glucose level increased compared to vehicle; −: the glucose level decreased compared to vehicle; conditions: Table 4, literature compounds
# Method: In Vivo Inflammation Assay
# Intact adult (6 month old) female Sprague-Dawley rats are used in the oxazolone (OX) contactdermatitis model. Rats were sensitized on the ventral abdomen with OX on Day 0. On Days 7 and 9, a randomly-selected ear was challenged (same ear each time) with OX; the other was treated with vehicle. Daily treatment begun on Day 7 and continued for 7d with test compounds at different doses and 1.3 mpk 6-methlyprednisolone or 0.1 mpk DEX as positive controls. The thickness of both ears are measured on Days 11 and 14. Necropsy occurred on Day 14. The rat is first weighed, then anesthetized in a CO2 chamber until near death. Approximately 5 ml whole blood is obtained by cardiac puncture. The rat is then examined for certain signs of death and completeness. Tissues are dissected in a highly stylized fashion. Then the following endpoints were evaluated: a) inhibiting ear inflammation induced by oxazalone, b) raising serum insulin, c) reducing serum ACTH, d) reducing spleen weight, e) reducing skin thickness, f) reducing body weight, g) increasing expression of bone-related genes with potential relationship to negative glucocorticoid effects on bone; e) changes in molecular markers that correlate with skin inflammation, skin thinning, muscle atrophy and glucose metabolism in liver. All blood samples were collected between 1330-1530 hours, ˜4-5 hrs after the last compound treatment.
# Primary data for this assay are left and right ear thickness. Inter-ear thickness difference (etd) is used for the estimating the level of inflammation and effectiveness of the compounds is determined by their ability to reduce the increase the thickness of the inflamed ear. Back of the rat skin thickness, spleen weight, serum insulin as well as the effects of gcs on the expression of molecular markers in skin inflammation, skin atrophy, muscle atrophy and glucose metabolism in liver are measured. Data are analyzed by anova plus fisher plsd post-hoc test to identify intergroup differences.
smiles,measurement,setting,value
"C[C@]12Cc3cnn(-c4ccc(F)cc4)c3C=C1CCC[C@@H]2[C@@H](O)c1ccc(F)cc1 [Ex. 32 WO 03/086294 A2, reference compound]",solubility,[1],poor
same,AI*,[2]; anti-inflammatory effect,+ (the anti-inflammatory activity was equal to or greater than 40% of the effect generated by the control compound)
same,GL *,[2]; glucose effect,+
